This note sets out measurements from patent publication US12083124B2 (Incyte Corporation, priority 2019, dated 2024).

pIC50: −log10 of the molar value. Where two headings read alike, the source gives them in different places.

The target of experiment [1] is wild-type un-phosphorylated FGFR3 (Homo sapiens, UniProt P22607). The experiment is described as follows: FGFR Enzymatic Assay (FRET peptide phosphorylation), FGFR3.
In experiment [2] the target is wild-type un-phosphorylated FGFR1 (Homo sapiens, UniProt P11362). The experiment is described as follows: FGFR Enzymatic Assay (FRET peptide phosphorylation), FGFR1. The settings on record: pre-incubated for 4 hours.
Method: The inhibitor potency of the exemplified compounds was determined in an enzyme discontinuous assay that measures peptide phosphorylation using FRET measurements to detect product formation. Inhibitors were serially diluted in DMSO and a volume of 0.2 μL was transferred to the wells of a 384-well plate. […] Appropriate controls (enzyme blank and enzyme with no inhibitor) were included on the plate. […] The 10 μL/well reaction concentration of the peptide substrate was 500 nM whereas the ATP concentration was maintained near or below the ATP Km. The ATP Km values were pre-determined in a separate series of experiments. The reaction plate was incubated at 25° C. for 1 hr and the reactions were ended with the addition of 5 μL/well of quench solution (50 mM Tris, 150 mM NaCl, 0.5 mg/mL BSA, pH 7.8; 45 mM EDTA, 600 nM staurosporin, with Perkin Elmer Lance Reagents at 3.75 nM Eu-antibody PY20 and 180 nM APC-Streptavidin). The plate was allowed to equilibrate for ˜10 minutes at ambient temperature before scanning on a PheraStar plate reader (BMG Labtech) instrument.
Either GraphPad prism or XLfit was used to analyze the data. The IC50 values were derived by fitting the data to a four parameter logistic equation producing a sigmoidal dose-response curve with a variable Hill coefficient. Prism equation: Y=Bottom+(Top-Bottom)/(1+10^((Log IC50-X)*Hill slope)); XLfit equation: Y=(A+((B−A)/(1+((X/C)^D)))) where X is the logarithm of inhibitor concentration and Y is the response.
GraphPad prism3 was used to analyze the data. The IC50 values were derived by fitting the data to the equation for a sigmoidal dose-response with a variable slope. Y=Bottom+(Top-Bottom)/(1+10^((Log IC50-X)*Hill Slope)) where X is the logarithm of concentration and Y is the response.
The data in Table 1 was measured in wild-type un-phosphorylated FGFR1, FGFR2, FGFR3, and FGFR4 proteins.
Experiment [3] deals with wild-type un-phosphorylated FGFR2 (Homo sapiens, UniProt P21802). The experiment is described as follows: FGFR Enzymatic Assay (FRET peptide phosphorylation), FGFR2.
The mark [4] stands for this setting: FGFR1, wild-type un-phosphorylated FGFR1.
Setting [5] is: read-out: FGFR1, wild-type un-phosphorylated FGFR1.
Setting [6] is: read-out: FGFR2, wild-type un-phosphorylated FGFR2, pre-incubated for 4 hours.

Chain of wild-type un-phosphorylated FGFR2 (P21802 22-821): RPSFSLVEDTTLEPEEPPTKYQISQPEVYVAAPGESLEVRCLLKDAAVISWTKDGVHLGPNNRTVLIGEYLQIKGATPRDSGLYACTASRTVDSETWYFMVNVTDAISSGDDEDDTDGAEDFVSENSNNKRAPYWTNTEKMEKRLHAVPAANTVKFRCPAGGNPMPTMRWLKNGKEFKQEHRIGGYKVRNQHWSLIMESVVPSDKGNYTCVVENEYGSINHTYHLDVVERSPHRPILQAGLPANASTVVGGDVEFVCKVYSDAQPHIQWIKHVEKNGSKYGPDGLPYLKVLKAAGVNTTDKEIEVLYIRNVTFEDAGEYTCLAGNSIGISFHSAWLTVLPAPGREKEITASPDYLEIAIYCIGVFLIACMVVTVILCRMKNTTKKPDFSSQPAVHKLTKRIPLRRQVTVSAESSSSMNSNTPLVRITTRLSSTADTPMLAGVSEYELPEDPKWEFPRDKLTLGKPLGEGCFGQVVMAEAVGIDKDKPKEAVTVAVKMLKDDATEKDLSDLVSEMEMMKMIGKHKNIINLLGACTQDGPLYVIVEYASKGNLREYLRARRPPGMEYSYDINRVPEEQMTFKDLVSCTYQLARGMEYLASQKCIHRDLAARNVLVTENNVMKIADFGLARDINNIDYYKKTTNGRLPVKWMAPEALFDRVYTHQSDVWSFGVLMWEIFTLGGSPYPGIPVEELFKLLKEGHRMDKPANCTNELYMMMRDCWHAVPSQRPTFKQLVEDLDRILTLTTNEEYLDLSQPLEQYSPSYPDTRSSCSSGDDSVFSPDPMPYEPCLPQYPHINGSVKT
Chain of wild-type un-phosphorylated FGFR1 (P11362 22-822): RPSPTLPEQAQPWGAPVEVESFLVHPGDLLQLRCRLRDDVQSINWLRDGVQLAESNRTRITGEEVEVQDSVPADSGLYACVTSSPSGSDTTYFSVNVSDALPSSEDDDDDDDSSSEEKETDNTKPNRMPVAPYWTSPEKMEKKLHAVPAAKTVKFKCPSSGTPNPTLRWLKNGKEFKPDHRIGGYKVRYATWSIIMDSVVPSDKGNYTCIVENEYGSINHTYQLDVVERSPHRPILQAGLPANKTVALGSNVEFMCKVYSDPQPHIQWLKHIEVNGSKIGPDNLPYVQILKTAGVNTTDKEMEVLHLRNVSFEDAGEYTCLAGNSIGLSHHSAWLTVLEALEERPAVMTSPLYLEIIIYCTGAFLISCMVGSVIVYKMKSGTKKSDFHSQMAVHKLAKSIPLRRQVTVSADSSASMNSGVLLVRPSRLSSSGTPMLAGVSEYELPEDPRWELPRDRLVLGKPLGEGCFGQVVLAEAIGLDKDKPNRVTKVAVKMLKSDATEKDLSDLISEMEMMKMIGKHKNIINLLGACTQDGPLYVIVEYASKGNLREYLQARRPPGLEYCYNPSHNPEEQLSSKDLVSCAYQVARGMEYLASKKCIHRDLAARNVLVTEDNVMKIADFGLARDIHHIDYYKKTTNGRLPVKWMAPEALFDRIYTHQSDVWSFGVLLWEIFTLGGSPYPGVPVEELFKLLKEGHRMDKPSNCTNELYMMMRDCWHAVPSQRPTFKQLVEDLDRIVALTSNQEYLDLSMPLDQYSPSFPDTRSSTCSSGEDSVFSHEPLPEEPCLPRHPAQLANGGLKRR
Chain of wild-type un-phosphorylated FGFR3 (P22607 23-806): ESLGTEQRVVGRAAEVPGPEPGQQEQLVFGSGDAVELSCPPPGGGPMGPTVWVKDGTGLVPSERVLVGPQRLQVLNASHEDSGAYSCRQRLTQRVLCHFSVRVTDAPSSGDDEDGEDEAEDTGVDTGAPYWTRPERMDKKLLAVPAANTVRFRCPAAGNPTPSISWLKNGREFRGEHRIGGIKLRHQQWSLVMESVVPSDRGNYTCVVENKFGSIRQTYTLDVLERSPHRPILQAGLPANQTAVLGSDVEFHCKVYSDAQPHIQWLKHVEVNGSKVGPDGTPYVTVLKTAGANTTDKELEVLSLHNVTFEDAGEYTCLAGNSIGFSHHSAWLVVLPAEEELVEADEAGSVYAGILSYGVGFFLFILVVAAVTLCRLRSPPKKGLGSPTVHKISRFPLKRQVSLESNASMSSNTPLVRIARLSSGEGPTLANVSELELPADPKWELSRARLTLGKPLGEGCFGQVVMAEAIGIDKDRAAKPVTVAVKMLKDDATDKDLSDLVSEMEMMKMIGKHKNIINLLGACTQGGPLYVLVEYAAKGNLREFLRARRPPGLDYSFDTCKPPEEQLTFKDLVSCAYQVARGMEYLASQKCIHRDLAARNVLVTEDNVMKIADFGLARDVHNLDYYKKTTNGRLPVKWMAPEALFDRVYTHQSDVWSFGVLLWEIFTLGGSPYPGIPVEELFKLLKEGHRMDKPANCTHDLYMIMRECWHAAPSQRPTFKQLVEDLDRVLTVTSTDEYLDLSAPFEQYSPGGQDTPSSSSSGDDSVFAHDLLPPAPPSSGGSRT

Take `COc1cc2[nH]nc(-c3cnn(C)c3)c2nc1-c1cccc2c1CCC2CO` (single isomer, unassigned) [Example 11, (4-(6-Methoxy-3-(1-methyl-1H-pyrazol-4-yl)-1H-pyrazolo[4,3-b]pyridin-5-yl)-2,3-dihydro-1H-inden-1-yl)methanol]: the pIC50 in experiment [1] was over 8.22; in experiment [2] (setting [4]), 7.00 to 7.40; in experiment [3] it was over 8.22.

In the case of `COc1cc2[nH]nc(-c3ccc(C4CC(=O)N(C)C4)nc3)c2nc1-c1cccc2c1CCC2C#N` (single isomer, unassigned) [Example 75, 4-(6-Methoxy-3-(6-(1-methyl-5-oxopyrrolidin-3-yl)pyridin-3-yl)-1H-pyrazolo[4,3-b]pyridin-5-yl)-2,3-dihydro-1H-indene-1-carbonitrile], the figures for the pIC50 in experiment [1], in experiment [2] (setting [5]) and in experiment [3] were over 8.22, 7.40 to 8.22 and over 8.22, respectively.

For `COc1cc2[nH]nc(-c3ccc(C45CC4CN(CCO)C5)nc3)c2nc1-c1cccc2c1CCC2` (single isomer, unassigned) [Example 194B, 2-(1-(5-(5-(2,3-Dihydro-1H-inden-4-yl)-6-methoxy-1H-pyrazolo[4,3-b]pyridin-3-yl)pyridin-2-yl)-3-azabicyclo[3.1.0]hexan-3-yl)ethan-1-ol], the results for the pIC50 in experiment [1], in experiment [2] (setting [5]) and in experiment [3] were over 8.22, 7.40 to 8.22 and over 8.22, respectively.

Consider `COc1cc2[nH]nc(-c3ccc(N4CCN(C(C)=O)CC4)nc3)c2nc1-c1cccc(C)c1C` [Example 43, 1-(4-(5-(5-(2,3-Dimethylphenyl)-6-methoxy-1H-pyrazolo[4,3-b]pyridin-3-yl)pyridin-2-yl)piperazin-1-yl)ethan-1-one], for which the values for the pIC50 in experiment [1], in experiment [2] (setting [4]) and in experiment [3] were over 8.22, under 7.00 and over 8.22, respectively.

In the case of `COc1cc2[nH]nc(-c3ccc(N4CCN(C)C(=O)C4)nc3)c2nc1-c1cccc(C)c1C` [Example 45, 4-(5-(5-(2,3-Dimethylphenyl)-6-methoxy-1H-pyrazolo[4,3-b]pyridin-3-yl)pyridin-2-yl)-1-methylpiperazin-2-one], the pIC50 is over 8.22 in experiment [1], under 7.00 in experiment [2] (setting [4]) and over 8.22 in experiment [3].

On to `COc1cc2[nH]nc(-c3ccc(N4CCN(CCO)CC4)nc3)c2nc1-c1cccc(CC#N)c1C` [Example 89, 2-(3-(3-(6-(4-(2-Hydroxyethyl)piperazin-1-yl)pyridin-3-yl)-6-methoxy-1H-pyrazolo[4,3-b]pyridin-5-yl)-2-methylphenyl)acetonitrile], for which the pIC50 is over 8.22 in experiment [1], under 7.00 in experiment [2] (setting [4]) and over 8.22 in experiment [3].

Turning to `COc1cc2[nH]nc(-c3cnn(Cc4ncnn4C)c3)c2nc1-c1cccc(C)c1C` [Example 3, 5-(2,3-Dimethylphenyl)-6-methoxy-3-(1-((1-methyl-1H-1,2,4-triazol-5-yl)methyl)-1H-pyrazol-4-yl)-1H-pyrazolo[4,3-b]pyridine], the pIC50 in experiment [1] is over 8.22; in experiment [2] (setting [4]), 7.00 to 7.40; in experiment [3], over 8.22.

Regarding `COc1cc2[nH]nc(-c3ccc(N4CCN5C[C@H](O)C[C@H]5C4)nc3)c2nc1-c1ccccc1C1CC1` [Example 92, (7R,8aS)-2-(5-(5-(2-Cyclopropylphenyl)-6-methoxy-1H-pyrazolo[4,3-b]pyridin-3-yl)pyridin-2-yl)octahydropyrrolo[1,2-a]pyrazin-7-ol], the values for the pIC50 in experiment [1], in experiment [2] (setting [4]) and in experiment [3] (setting [6]) were over 8.22, under 7.00 and 7.40 to 8.22, respectively.

Regarding `COc1cc2[nH]nc(-c3ccc(C4(C#N)CCN(C(=O)[C@H]5COCCN5C)CC4)nc3)c2nc1-c1cccc2c1CCC2` [Example 196, (R)-4-(5-(5-(2,3-Dihydro-1H-inden-4-yl)-6-methoxy-1H-pyrazolo[4,3-b]pyridin-3-yl)pyridin-2-yl)-1-(4-methylmorpholine-3-carbonyl)piperidine-4-carbonitrile], the pIC50 was over 8.22 in experiment [1], 7.40 to 8.22 in experiment [2] (setting [5]) and over 8.22 in experiment [3].

Regarding `Cn1cc(-c2n[nH]c3cc(Cl)c(-c4cccc5c4CC(O)C5)nc23)cn1` (single isomer, unassigned) [Example 39, 4-(6-Chloro-3-(1-methyl-1H-pyrazol-4-yl)-1H-pyrazolo[4,3-b]pyridin-5-yl)-2,3-dihydro-1H-inden-2-ol], the pIC50 was over 8.22 in experiment [1], 7.00 to 7.40 in experiment [2] (setting [4]) and 7.40 to 8.22 in experiment [3] (setting [6]).

As for `COc1cc2[nH]nc(-c3cnn(C)c3)c2nc1-c1cccc2c1CCC2CO` (single isomer, unassigned) [Example 12, (4-(6-Methoxy-3-(1-methyl-1H-pyrazol-4-yl)-1H-pyrazolo[4,3-b]pyridin-5-yl)-2,3-dihydro-1H-inden-1-yl)methanol], the pIC50 is over 8.22 in experiment [1] (read-out: FGFR3, wild-type un-phosphorylated FGFR3, pre-incubated for 4 hours); 7.00 to 7.40 in experiment [2] (setting [5]); over 8.22 in experiment [3] (setting [6]).

Consider `COc1cc2[nH]nc(-c3ccc(N4CCN5C[C@H](O)C[C@H]5C4)nc3)c2nc1-c1cccc2c1CC(F)C2` (stereo partly drawn) [Example 83, (7R,8aS)-2-(5-(5-(2-Fluoro-2,3-dihydro-1H-inden-4-yl)-6-methoxy-1H-pyrazolo[4,3-b]pyridin-3-yl)pyridin-2-yl)octahydropyrrolo[1,2-a]pyrazin-7-ol], for which the values for the pIC50 in experiment [1], in experiment [2] (setting [5]) and in experiment [3] were over 8.22, 7.40 to 8.22 and over 8.22, respectively.

On to `COc1cc2[nH]nc(-c3ccc(N4CCC5(CC4)CNC(=O)O5)nc3)c2nc1-c1cccc(C)c1C` [Example 65, 8-(5-(5-(2,3-Dimethylphenyl)-6-methoxy-1H-pyrazolo[4,3-b]pyridin-3-yl)pyridin-2-yl)-1-oxa-3,8-diazaspiro[4.5]decan-2-one], for which the pIC50 in experiment [1] was over 8.22; in experiment [2] (setting [4]), under 7.00; in experiment [3], over 8.22.

`[2H]C([2H])([2H])c1cccc(-c2nc3c(-c4ccc(N5CCN(C)CC5)nc4)n[nH]c3cc2OC)c1C` [Example 68, 6-Methoxy-5-(2-methyl-3-(methyl-d3)phenyl)-3-(6-(4-methylpiperazin-1-yl)pyridin-3-yl)-1H-pyrazolo[4,3-b]pyridine]: the pIC50 was over 8.22 in experiment [1], 7.00 to 7.40 in experiment [2] (setting [4]) and over 8.22 in experiment [3].

In the case of `COc1cc2[nH]nc(-c3ccc(N4CCC(C(=O)N(C)C)CC4)nc3)c2nc1-c1cccc(C)c1C` [Example 50, 1-(5-(5-(2,3-Dimethylphenyl)-6-methoxy-1H-pyrazolo[4,3-b]pyridin-3-yl)pyridin-2-yl)-N,N-dimethylpiperidine-4-carboxamide], the figures for the pIC50 in experiment [1], in experiment [2] (setting [4]) and in experiment [3] were over 8.22, under 7.00 and over 8.22, respectively.

For `COc1cc2[nH]nc(-c3ccc(N4CCN5C[C@H](O)C[C@H]5C4)nc3)c2nc1-c1cccc2c1CCCO2` [Example 93, (7R,8aS)-2-(5-(5-(Chroman-5-yl)-6-methoxy-1H-pyrazolo[4,3-b]pyridin-3-yl)pyridin-2-yl)octahydropyrrolo[1,2-a]pyrazin-7-ol], the pIC50 in experiment [1] is over 8.22; in experiment [2] (setting [4]) it was under 7.00; in experiment [3] (setting [6]), 7.40 to 8.22.

For `CC(=O)N1CCN(c2ccc(-c3n[nH]c4cc(OC(F)F)c(-c5cccc(C)c5C)nc34)cn2)CC1` [Example 6, 1-(4-(5-(6-(Difluoromethoxy)-5-(2,3-dimethylphenyl)-1H-pyrazolo[4,3-b]pyridin-3-yl)pyridin-2-yl)piperazin-1-yl)ethan-1-one], the figures for the pIC50 in experiment [1], in experiment [2] (setting [4]) and in experiment [3] were over 8.22, under 7.00 and over 8.22, respectively.

With `COc1cc2[nH]nc(-c3ccc(C4CCN(C(=O)[C@H](C)O)CC4)nc3)c2nc1-c1cccc2c1CC(F)C2` (single isomer, unassigned) [Example 81], the results for the pIC50 in experiment [1], in experiment [2] (setting [5]) and in experiment [3] were over 8.22, 7.40 to 8.22 and over 8.22, respectively.

Take `COc1cc2[nH]nc(-c3ccc(N4CCC(C)(C(=O)O)CC4)nc3)c2nc1-c1cccc(C)c1C` [Example 51, 1-(5-(5-(2,3-Dimethylphenyl)-6-methoxy-1H-pyrazolo[4,3-b]pyridin-3-yl)pyridin-2-yl)-4-methylpiperidine-4-carboxylic acid]: the values for the pIC50 in experiment [1], in experiment [2] (setting [4]) and in experiment [3] were over 8.22, 7.00 to 7.40 and over 8.22, respectively.

Consider `COc1cc2[nH]nc(-c3ccc(N4C[C@@H](F)[C@@H](N)C4)nc3)c2nc1-c1cccc(C)c1C` [Example 80, (3S,4R)-1-(5-(5-(2,3-Dimethylphenyl)-6-methoxy-1H-pyrazolo[4,3-b]pyridin-3-yl)pyridin-2-yl)-4-fluoropyrrolidin-3-amine], for which the pIC50 is over 8.22 in experiment [1], 7.00 to 7.40 in experiment [2] (setting [4]) and over 8.22 in experiment [3].

With `COc1cc2[nH]nc(-c3ccc(C45CC4CN(C(=O)CO)C5)nc3)c2nc1-c1cccc2c1CCC2` (single isomer, unassigned) [Example 191B, 1-(1-(5-(5-(2,3-Dihydro-1H-inden-4-yl)-6-methoxy-1H-pyrazolo[4,3-b]pyridin-3-yl)pyridin-2-yl)-3-azabicyclo[3.1.0]hexan-3-yl)-2-hydroxyethan-1-one], the results for the pIC50 in experiment [1], in experiment [2] (setting [5]) and in experiment [3] were over 8.22, 7.40 to 8.22 and over 8.22, respectively.

Take `COc1cc2[nH]nc(-c3ccc(C45CC4CN(C(=O)[C@H]4COCCN4C)C5)nc3)c2nc1-c1cccc2c1CCC2` (stereo partly drawn) [Example 192, (1-(5-(5-(2,3-Dihydro-1H-inden-4-yl)-6-methoxy-1H-pyrazolo[4,3-b]pyridin-3-yl)pyridin-2-yl)-3-azabicyclo[3.1.0]hexan-3-yl)((R)-4-methylmorpholin-3-yl)methanone]: the values for the pIC50 in experiment [1], in experiment [2] (setting [5]) and in experiment [3] were over 8.22, 7.40 to 8.22 and over 8.22, respectively.

Take `COc1cc2[nH]nc(-c3ccc(N4CCS(=N)(=O)CC4)nc3)c2nc1-c1cccc(C)c1C` [Example 86, 4-(5-(5-(2,3-Dimethylphenyl)-6-methoxy-1H-pyrazolo[4,3-b]pyridin-3-yl)pyridin-2-yl)-1-imino-1λ^6-thiomorpholine 1-oxide]: the pIC50 in experiment [1] is over 8.22; in experiment [2] (setting [4]), under 7.00; in experiment [3], over 8.22.
